In patent US9302999B2, “Substituted triazoles as herbicides” (E. I. DU PONT DE NEMOURS AND COMPANY, priority 2012, dated 2016):

Assays:
Type in all cases: in vivo
[1] = test system: pigweed (Amaranthus retroflexus); assay: Test A pre-/postemergence: pigweed; settings: for Pigweed plant response rating: Postemergence; for Plant response rating, Pigweed: Preemergence
In short: (§1)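 Injury is scored visually on a scale where 0 means no effect and 100 complete control, comparing treated with untreated plants after approximately ten greenhouse days. Both preemergence and postemergence applications are made at the same time.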

corn (Zea mays) = assay: Test A pre-/postemergence: corn; settings: for Corn plant response rating: Postemergence; for Plant response rating, Corn: Preemergence
In short: as §1

rice (Oryza sativa) = assay: Test C flooded paddy test: rice; settings: scale 0 to 100 (0 no effect, 100 complete control)
In short: (§2)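 Visual ratings from 0 (no effect) to 100 (complete control), made against untreated controls 13 to 15 days after treatment, express plant response. Compounds went directly into paddy water over 2-leaf stage plants in pots flooded to 3 cm.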

[2] = test system: barnyardgrass (Echinochloa crus-galli); assay: Test C flooded paddy test: barnyardgrass; settings: scale 0 to 100 (0 no effect, 100 complete control)
In short: as §2

[3] = test system: sedge, umbrella (small-flower umbrella sedge, Cyperus difformis); assay: Test C flooded paddy test: sedge, umbrella; settings: scale 0 to 100 (0 no effect, 100 complete control)
In short: as §2

[4] = test system: morningglory (Ipomoea spp.); assay: Test A pre-/postemergence: morningglory; settings: for Morningglory plant response rating: Postemergence; for Plant response rating, Morningglory: Preemergence
In short: as §1

[5] = test system: foxtail, giant (giant foxtail, Setaria faberii); assay: Test A pre-/postemergence: foxtail, giant; settings: for Foxtail, Giant plant response rating: Postemergence; for Plant response rating, Foxtail, Giant: Preemergence
In short: as §1

[6] = test system: barnyardgrass (Echinochloa crus-galli); assay: Test A pre-/postemergence: barnyardgrass; settings: for Barnyardgrass plant response rating: Postemergence; for Plant response rating, Barnyardgrass: Preemergence
In short: as §1

[7] = test system: crabgrass, large (large crabgrass, Digitaria sanguinalis); assay: Test A pre-/postemergence: crabgrass, large; settings: for Crabgrass, Large plant response rating: Postemergence; for Plant response rating, Crabgrass, Large: Preemergence
In short: as §1

[8] = test system: velvetleaf (Abutilon theophrasti); assay: Test A pre-/postemergence: velvetleaf; settings: for Velvetleaf plant response rating: Postemergence; for Plant response rating, Velvetleaf: Preemergence
In short: as §1

[9] = test system: ducksalad (Heteranthera limosa); assay: Test C flooded paddy test: ducksalad; settings: scale 0 to 100 (0 no effect, 100 complete control)
In short: as §2

[10] = test system: wheat (Triticum aestivum); assay: Test A pre-/postemergence: wheat; settings: for Wheat plant response rating: Postemergence; for Plant response rating, Wheat: Preemergence
In short: as §1

[11] = 125 g ai/ha, 0 to 100 scale, 0 is no effect, 100 is complete control
[12] = 500 g ai/ha, visual rating on 0 to 100 scale (0 no effect, 100 complete control), approximately ten days
[13] = 125 g ai/ha, 0 to 100 scale (0 no effect, 100 complete control)
[14] = 500 g ai/ha, 0 to 100 scale, 0 is no effect, 100 is complete control
[15] = Flood (flooded paddy test), 62 g ai/ha, visual rating after 13 to 15 days
[16] = Flood (flooded paddy test), 125 g ai/ha, visual rating after 13 to 15 days
[17] = Flood (flooded paddy test), 250 g ai/ha, visual rating after 13 to 15 days
[18] = 125 g ai/ha, 0 to 100 scale where 0 is no effect and 100 is complete control

Cc1nn(-c2cccc(Cl)c2)nc1C(=O)c1cccc(C(F)(F)F)c1 [Compound 76]
Pigweed plant response rating [1, 11]: 50
Pigweed plant response rating [1, 12]: 60
Plant response rating, Pigweed [1, 13]: 0
Plant response rating, Pigweed [1, 14]: 20
Corn plant response rating (corn (Zea mays); [11]): 10
Corn plant response rating (corn (Zea mays); [12]): 20
Plant response rating, Corn (corn (Zea mays); [13]): 0
Plant response rating, Corn (corn (Zea mays); [14]): 0
Plant response rating, Rice (rice (Oryza sativa); [15]): 0
Plant response rating, Rice (rice (Oryza sativa); [16]): 0
Plant response rating, Rice (rice (Oryza sativa); [17]): 0
Plant response rating, Rice (rice (Oryza sativa); Flood, 31 g ai/ha): 0
Plant response rating, Barnyardgrass [2, 15]: 0
Plant response rating, Barnyardgrass [2, 16]: 0
Plant response rating, Barnyardgrass [2, 17]: 0
Plant response rating, Barnyardgrass ([2]; Flood, 31 g ai/ha): 0
Plant response rating, Sedge, Umbrella [3, 15]: 0
Plant response rating, Sedge, Umbrella [3, 16]: 0
Plant response rating, Sedge, Umbrella [3, 17]: 0
Plant response rating, Sedge, Umbrella ([3]; Flood, 31 g ai/ha): 0
Morningglory plant response rating [4, 11]: 10
Morningglory plant response rating [4, 12]: 20
Plant response rating, Morningglory [4, 13]: 0
Plant response rating, Morningglory [4, 14]: 0
Foxtail, Giant plant response rating [5, 11]: 10
Foxtail, Giant plant response rating [5, 12]: 20
Plant response rating, Foxtail, Giant [5, 13]: 10
Plant response rating, Foxtail, Giant [5, 14]: 80
Barnyardgrass plant response rating [6, 11]: 0
Barnyardgrass plant response rating [6, 12]: 20
Plant response rating, Barnyardgrass [6, 13]: 0
Plant response rating, Barnyardgrass [6, 14]: 0
Crabgrass, Large plant response rating [7, 11]: 10
Crabgrass, Large plant response rating [7, 12]: 30
Plant response rating, Crabgrass, Large [7, 13]: 10
Plant response rating, Crabgrass, Large [7, 14]: 40
Velvetleaf plant response rating [8, 11]: 0
Velvetleaf plant response rating [8, 12]: 10
Plant response rating, Velvetleaf [8, 13]: 0
Plant response rating, Velvetleaf [8, 14]: 0
Plant response rating, Ducksalad [9, 15]: 0
Plant response rating, Ducksalad [9, 16]: 0
Plant response rating, Ducksalad [9, 17]: 0
Plant response rating, Ducksalad ([9]; Flood, 31 g ai/ha): 0
Wheat plant response rating [10, 11]: 0
Wheat plant response rating [10, 12]: 20
Plant response rating, Wheat [10, 13]: 0
Plant response rating, Wheat [10, 14]: 0

Cc1nn(-c2ccc(C(F)(F)F)cc2)nc1Oc1ccccc1Cl [Compound 82]
Pigweed plant response rating [1, 11]: 0
Pigweed plant response rating [1, 12]: 0
Plant response rating, Pigweed [1, 13]: 0
Plant response rating, Pigweed [1, 14]: 0
Corn plant response rating (corn (Zea mays); [11]): 0
Corn plant response rating (corn (Zea mays); [12]): 0
Plant response rating, Corn (corn (Zea mays); [13]): 0
Plant response rating, Corn (corn (Zea mays); [14]): 0
Plant response rating, Rice (rice (Oryza sativa); [16]): 0
Plant response rating, Rice (rice (Oryza sativa); [17]): 0
Plant response rating, Rice (rice (Oryza sativa); Flood, 31 g ai/ha): 0
Plant response rating, Rice (rice (Oryza sativa); Flood, 62 g ai/ha): 0
Plant response rating, Barnyardgrass [2, 16]: 0
Plant response rating, Barnyardgrass [2, 17]: 0
Plant response rating, Barnyardgrass ([2]; Flood, 31 g ai/ha): 0
Plant response rating, Barnyardgrass ([2]; Flood, 62 g ai/ha): 0
Plant response rating, Sedge, Umbrella [3, 16]: 0
Plant response rating, Sedge, Umbrella [3, 17]: 0
Plant response rating, Sedge, Umbrella ([3]; Flood, 31 g ai/ha): 0
Plant response rating, Sedge, Umbrella ([3]; Flood, 62 g ai/ha): 0
Morningglory plant response rating [4, 11]: 0
Morningglory plant response rating [4, 12]: 0
Plant response rating, Morningglory [4, 13]: 0
Plant response rating, Morningglory [4, 14]: 0
Foxtail, Giant plant response rating [5, 11]: 0
Foxtail, Giant plant response rating [5, 12]: 0
Plant response rating, Foxtail, Giant [5, 13]: 0
Plant response rating, Foxtail, Giant [5, 14]: 0
Barnyardgrass plant response rating [6, 11]: 0
Barnyardgrass plant response rating [6, 12]: 0
Plant response rating, Barnyardgrass [6, 13]: 0
Plant response rating, Barnyardgrass [6, 14]: 0
Crabgrass, Large plant response rating [7, 11]: 0
Crabgrass, Large plant response rating [7, 12]: 0
Plant response rating, Crabgrass, Large [7, 13]: 0
Plant response rating, Crabgrass, Large [7, 14]: 0
Velvetleaf plant response rating [8, 11]: 0
Velvetleaf plant response rating [8, 12]: 0
Plant response rating, Velvetleaf [8, 13]: 0
Plant response rating, Velvetleaf [8, 14]: 0
Plant response rating, Ducksalad [9, 16]: 0
Plant response rating, Ducksalad [9, 17]: 0
Plant response rating, Ducksalad ([9]; Flood, 31 g ai/ha): 0
Plant response rating, Ducksalad ([9]; Flood, 62 g ai/ha): 0
Wheat plant response rating [10, 11]: 0
Wheat plant response rating [10, 12]: 0
Plant response rating, Wheat [10, 13]: 0
Plant response rating, Wheat [10, 14]: 0

Cc1nn(-c2ccc(C(F)(F)F)cc2)nc1Oc1ccc(C(F)(F)F)cc1 [Compound 83]
Pigweed plant response rating [1, 11]: 0
Pigweed plant response rating [1, 12]: 0
Plant response rating, Pigweed [1, 13]: 0
Plant response rating, Pigweed [1, 14]: 0
Corn plant response rating (corn (Zea mays); [11]): 0
Corn plant response rating (corn (Zea mays); [12]): 0
Plant response rating, Corn (corn (Zea mays); [13]): 0
Plant response rating, Corn (corn (Zea mays); [14]): 0
Plant response rating, Rice (rice (Oryza sativa); [16]): 20
Plant response rating, Rice (rice (Oryza sativa); [17]): 25
Plant response rating, Rice (rice (Oryza sativa); Flood, 31 g ai/ha): 10
Plant response rating, Rice (rice (Oryza sativa); Flood, 62 g ai/ha): 20
Plant response rating, Barnyardgrass [2, 16]: 0
Plant response rating, Barnyardgrass [2, 17]: 0
Plant response rating, Barnyardgrass ([2]; Flood, 31 g ai/ha): 0
Plant response rating, Barnyardgrass ([2]; Flood, 62 g ai/ha): 0
Plant response rating, Sedge, Umbrella [3, 16]: 20
Plant response rating, Sedge, Umbrella [3, 17]: 30
Plant response rating, Sedge, Umbrella ([3]; Flood, 31 g ai/ha): 10
Plant response rating, Sedge, Umbrella ([3]; Flood, 62 g ai/ha): 20
Morningglory plant response rating [4, 11]: 0
Morningglory plant response rating [4, 12]: 0
Plant response rating, Morningglory [4, 13]: 0
Plant response rating, Morningglory [4, 14]: 0
Foxtail, Giant plant response rating [5, 11]: 0
Foxtail, Giant plant response rating [5, 12]: 0
Plant response rating, Foxtail, Giant [5, 13]: 0
Plant response rating, Foxtail, Giant [5, 14]: 0
Barnyardgrass plant response rating [6, 11]: 0
Barnyardgrass plant response rating [6, 12]: 0
Plant response rating, Barnyardgrass [6, 13]: 0
Plant response rating, Barnyardgrass [6, 14]: 0
Crabgrass, Large plant response rating [7, 11]: 0
Crabgrass, Large plant response rating [7, 12]: 0
Plant response rating, Crabgrass, Large [7, 13]: 0
Plant response rating, Crabgrass, Large [7, 14]: 0
Velvetleaf plant response rating [8, 11]: 0
Velvetleaf plant response rating [8, 12]: 0
Plant response rating, Velvetleaf [8, 13]: 0
Plant response rating, Velvetleaf [8, 14]: 0
Plant response rating, Ducksalad [9, 16]: 20
Plant response rating, Ducksalad [9, 17]: 30
Plant response rating, Ducksalad ([9]; Flood, 31 g ai/ha): 0
Plant response rating, Ducksalad ([9]; Flood, 62 g ai/ha): 20
Wheat plant response rating [10, 11]: 0
Wheat plant response rating [10, 12]: 0
Plant response rating, Wheat [10, 13]: 0
Plant response rating, Wheat [10, 14]: 0

Cc1nn(-c2cccc(I)c2)nc1C(=O)c1cccc(C(F)(F)F)c1 [Compound 90]
Pigweed plant response rating [1, 11]: 0
Pigweed plant response rating [1, 12]: 30
Plant response rating, Pigweed [1, 18]: 0
Plant response rating, Pigweed [1, 14]: 0
Corn plant response rating (corn (Zea mays); [11]): 0
Corn plant response rating (corn (Zea mays); [12]): 10
Plant response rating, Corn (corn (Zea mays); [13]): 0
Plant response rating, Corn (corn (Zea mays); [14]): 0
Plant response rating, Rice (rice (Oryza sativa); [16]): 0
Plant response rating, Rice (rice (Oryza sativa); [17]): 0
Plant response rating, Rice (rice (Oryza sativa); Flood, 31 g ai/ha): 0
Plant response rating, Rice (rice (Oryza sativa); Flood, 62 g ai/ha): 0
Plant response rating, Barnyardgrass [2, 16]: 0
Plant response rating, Barnyardgrass [2, 17]: 0
Plant response rating, Barnyardgrass ([2]; Flood, 31 g ai/ha): 0
Plant response rating, Barnyardgrass ([2]; Flood, 62 g ai/ha): 0
Plant response rating, Sedge, Umbrella [3, 16]: 0
Plant response rating, Sedge, Umbrella [3, 17]: 0
Plant response rating, Sedge, Umbrella ([3]; Flood, 31 g ai/ha): 0
Plant response rating, Sedge, Umbrella ([3]; Flood, 62 g ai/ha): 0
Morningglory plant response rating [4, 11]: 0
Morningglory plant response rating [4, 12]: 10
Plant response rating, Morningglory [4, 18]: 0
Plant response rating, Morningglory [4, 14]: 0
Foxtail, Giant plant response rating [5, 11]: 0
Foxtail, Giant plant response rating [5, 12]: 10
Plant response rating, Foxtail, Giant [5, 18]: 0
Plant response rating, Foxtail, Giant [5, 14]: 0
Barnyardgrass plant response rating [6, 11]: 0
Barnyardgrass plant response rating [6, 12]: 10
Plant response rating, Barnyardgrass [6, 13]: 0
Plant response rating, Barnyardgrass [6, 14]: 0
Crabgrass, Large plant response rating [7, 11]: 0
Crabgrass, Large plant response rating [7, 12]: 10
Plant response rating, Crabgrass, Large [7, 13]: 0
Plant response rating, Crabgrass, Large [7, 14]: 0
Velvetleaf plant response rating [8, 11]: 0
Velvetleaf plant response rating [8, 12]: 0
Plant response rating, Velvetleaf [8, 18]: 0
Plant response rating, Velvetleaf [8, 14]: 0
Plant response rating, Ducksalad [9, 16]: 0
Plant response rating, Ducksalad [9, 17]: 0
Plant response rating, Ducksalad ([9]; Flood, 31 g ai/ha): 0
Plant response rating, Ducksalad ([9]; Flood, 62 g ai/ha): 0
Wheat plant response rating [10, 11]: 0
Wheat plant response rating [10, 12]: 0
Plant response rating, Wheat [10, 18]: 0
Plant response rating, Wheat [10, 14]: 0
